Results on 18 compounds are retold here after paper PMC5421785, “Citrullination only infrequently impacts peptide binding to HLA class II MHC” (PLoS ONE, 2017).

Where two headings read alike, the source gives them in different places. Square brackets hold non-standard residues; d marks the D form. Ends that are not written are not given here. Peptide text beside a SMILES is read from it. Cit = NC(=O)NCCC[C@H](N)C(=O)O

Experiment [1] has as its target T1, HLA-DRB1*04:01 (Homo sapiens, UniProt P01903+P01911, A100K/A169T/F76Y/I96L/K127E/L162R/M171V/N62H/P40V/Q125Y/R42H/S133A/S149N/S66Y/V115G/V209L/W38E).
T1 construct: EBV transformed homozygous cell lines were used as sources of MHC molecules; endogenous in cells; host or cells: EBV transformed homozygous cell lines
The experiment is described as follows: HLA class II peptide binding, inhibition of radiolabeled peptide binding to purified MHC.

The target of experiment [2] is T2, HLA-DRB1*01:01 (Homo sapiens, UniProt P01903+P01911, A100R/D57E/F55L/F60I/F76Y/I96L/L162R/M171V/P40L/Q125E/R42F/V115G/Y59C).
T2 construct: EBV transformed homozygous cell lines were used as sources of MHC molecules; endogenous in cells; host or cells: EBV transformed homozygous cell lines
The experiment is described as above.

The mark [3] stands for this setting: citrullinated 15-mer (X), purified MHC, inhibition of radiolabeled peptide binding, dash = IC50 >40,000 nM, read-out: DRB1*04:01 binding capacity, Cit peptide (IC50 nM).
Where [4] appears, read: citrullinated 15-mer (X), purified MHC, inhibition of radiolabeled peptide binding, dash = IC50 >40,000 nM, read-out: DRB1*01:01 binding capacity, Cit peptide (IC50 nM).
The mark [5] stands for this setting: citrullinated 15-mer peptide (X = citrulline), purified HLA-DRB1*04:01, read-out: DRB1*04:01 binding capacity, Cit peptide (IC50 nM).
Setting [6] is: citrullinated 15-mer peptide (X = citrulline), purified HLA-DRB1*01:01, read-out: DRB1*01:01 binding capacity, Cit peptide (IC50 nM).
[7] abbreviates: citrullinated peptide as listed (X at Cit position), read-out: DRB1*04:01 binding capacity Cit peptide (IC50 nM).
Where [8] appears, read: value of the wild-type (non-citrullinated) counterpart of the listed peptide, read-out: DRB1*04:01 binding capacity WT peptide (IC50 nM).
Where [9] appears, read: citrullinated peptide as listed (X at Cit position), read-out: DRB1*01:01 binding capacity Cit peptide (IC50 nM).
Where [10] appears, read: value of the wild-type (non-citrullinated) counterpart of the listed peptide, read-out: DRB1*01:01 binding capacity WT peptide (IC50 nM).
Setting [11] is: read-out: DRB1*04:01 binding capacity, WT peptide (IC50 nM).
Where [12] appears, read: read-out: DRB1*01:01 binding capacity, WT peptide (IC50 nM).
[13] abbreviates: wild-type (unmodified Arg) 15-mer peptide, purified HLA-DRB1*04:01, read-out: DRB1*04:01 binding capacity, WT peptide (IC50 nM).
[14] abbreviates: wild-type (unmodified Arg) 15-mer peptide, purified HLA-DRB1*01:01, read-out: DRB1*01:01 binding capacity, WT peptide (IC50 nM).

What is called IC50 is the concentration at which inhibition is half-maximal. On to `CC[C@H](C)[C@H](NC(=O)[C@H](Cc1ccc(O)cc1)NC(=O)[C@H](CC(N)=O)NC(=O)[C@H](C)NC(=O)[C@H](Cc1ccccc1)NC(=O)[C@H](CCCNC(N)=O)NC(=O)[C@H](CC(=O)O)NC(=O)[C@@H](N)CC(N)=O)C(=O)N[C@@H](CC(=O)O)C(=O)N[C@@H](CCCCN)C(=O)N[C@H](C(=O)N[C@@H](CCCNC(=N)N)C(=O)N[C@@H](Cc1ccccc1)C(=O)N[C@@H](CC(C)C)C(=O)N[C@@H](CCC(=O)O)C(=O)O)C(C)C` [NDXFANYIDKVRFLE] (H-ND[Cit]FANYIDKVRFLE-OH), for which the IC50 in experiment [1] (setting [3]) came to 10900 nM; in experiment [2] (setting [4]), 816 nM.
In the same order, the values of `CC(C)[C@H](NC(=O)[C@H](Cc1ccc(O)cc1)NC(=O)[C@H](CO)NC(=O)[C@H](CCCNC(=N)N)NC(=O)[C@H](CO)NC(=O)[C@H](CO)NC(=O)[C@H](CO)NC(=O)[C@@H]1CCCN1C(=O)[C@H](CCCNC(N)=O)NC(=O)[C@H](CO)NC(=O)[C@H](C)N)C(=O)N[C@H](C(=O)N[C@H](C(=O)N[C@@H](CO)C(=O)N[C@H](C(=O)O)[C@@H](C)O)[C@@H](C)O)[C@@H](C)O` [ASXPSSSRSYVTTST] (H-AS[Cit]PSSSRSYVTTST-OH) are 757 nM and 5560 nM.
In the same order, the values of `CC[C@H](C)[C@H](NC(=O)[C@H](CC(=O)O)NC(=O)[C@H](CCC(=O)O)NC(=O)[C@H](C)NC(=O)[C@H](CC(C)C)NC(=O)[C@H](CC(N)=O)NC(=O)[C@H](CC(=O)O)NC(=O)[C@H](CCCNC(=N)N)NC(=O)[C@H](CCC(=O)O)NC(=O)[C@@H](NC(=O)[C@H](CCC(=O)O)NC(=O)[C@@H](N)C(C)C)C(C)C)C(=O)N[C@@H](CCSC)C(=O)N[C@@H](CCCNC(N)=O)C(=O)N[C@@H](CC(C)C)C(=O)O` [VEVERDNLAEDIMXL] (H-VEVERDNLAEDIM[Cit]L-OH) are 17100 nM and 19600 nM.
As for `CC[C@H](C)[C@H](NC(=O)[C@H](CC(C)C)NC(=O)[C@H](CC(C)C)NC(=O)[C@@H](NC(=O)[C@H](CCCNC(=N)N)NC(=O)[C@H](CCCCN)NC(=O)[C@H](CO)NC(=O)[C@H](Cc1c[nH]cn1)NC(=O)[C@@H](N)[C@@H](C)O)[C@@H](C)O)C(=O)N[C@@H](CCCCN)C(=O)N[C@H](C(=O)N[C@H](C(=O)N[C@@H](CCC(=O)O)C(=O)N[C@H](C(=O)N[C@@H](CCCNC(N)=O)C(=O)O)[C@@H](C)O)C(C)C)[C@@H](C)O` [THSKRTLLIKTVETX] (H-THSKRTLLIKTVET[Cit]-OH), the IC50 was found to be 6020 nM in experiment [1] (setting [5]) and 310 nM in experiment [2] (setting [6]).
With `CC[C@H](C)[C@H](NC(=O)[C@H](CC(=O)O)NC(=O)[C@@H](NC(=O)[C@@H](NC(=O)[C@@H]1CCCN1C(=O)[C@H](CC(C)C)NC(=O)[C@H](CCCNC(=N)N)NC(=O)[C@H](CO)NC(=O)[C@@H](NC(=O)[C@H](CCCCN)NC(=O)[C@H](CCC(N)=O)NC(=O)[C@H](CO)NC(=O)[C@H](CCCNC(N)=O)NC(=O)[C@H](Cc1ccc(O)cc1)NC(=O)[C@@H](N)CCC(=O)O)[C@@H](C)O)[C@@H](C)CC)[C@@H](C)CC)C(=O)O` [EYXSQKTSRLPIIDI] (H-EY[Cit]SQKTSRLPIIDI-OH), the IC50 was determined as 473 nM in experiment [1] (setting [7]), 314 nM in experiment [1] (setting [8]), 5.9 nM in experiment [2] (setting [9]) and 14 nM in experiment [2] (setting [10]).
As to `CC(C)C[C@H](NC(=O)[C@H](CCCNC(=N)N)NC(=O)[C@@H](NC(=O)[C@H](C)NC(=O)[C@H](CO)NC(=O)[C@H](CO)NC(=O)[C@H](CCCNC(=N)N)NC(=O)[C@@H](NC(=O)[C@H](C)NC(=O)[C@@H](N)Cc1ccc(O)cc1)[C@@H](C)O)C(C)C)C(=O)N[C@@H](CCCNC(N)=O)C(=O)N[C@@H](CO)C(=O)N[C@@H](CO)C(=O)N[C@H](C(=O)N1CCC[C@H]1C(=O)O)C(C)C` [YATRSSAVRLXSSVP] (H-YATRSSAVRL[Cit]SSVP-OH), the results for the IC50 in experiment [1] (setting [3]) and in experiment [2] (setting [4]) were 338 nM and 31 nM, respectively.
GGPGTASRPSSSRSY [Vimentin 16 WT]: the values for the half-inhibitory concentration (IC50) in experiment [1] (setting [11]) and in experiment [2] (setting [12]) were 39500 nM and 5230 nM, respectively.
For the compound `CC(C)C[C@H](NC(=O)[C@H](C)NC(=O)[C@H](CO)NC(=O)CN)C(=O)N[C@@H](CCCNC(=N)N)C(=O)N1CCC[C@H]1C(=O)N[C@@H](CO)C(=O)N[C@H](C(=O)N[C@@H](CO)C(=O)N[C@@H](CCCNC(N)=O)C(=O)N[C@@H](CO)C(=O)N[C@@H](CC(C)C)C(=O)N[C@@H](Cc1ccc(O)cc1)C(=O)N[C@@H](C)C(=O)N[C@@H](CO)C(=O)O)[C@@H](C)O` [GSALRPSTSXSLYAS], the IC50 in experiment [1] (setting [3]) was 803 nM; in experiment [2] (setting [4]) it was 25 nM.
For `CSCC[C@H](NC(=O)[C@H](CCC(=O)O)NC(=O)[C@H](CCC(=O)O)NC(=O)[C@H](CCC(N)=O)NC(=O)[C@H](CC(C)C)NC(=O)[C@H](CCCCN)NC(=O)[C@H](CCC(=O)O)NC(=O)[C@@H](N)CCCNC(N)=O)C(=O)N[C@@H](CC(C)C)C(=O)N[C@@H](CCC(N)=O)C(=O)N[C@@H](CCCNC(=N)N)C(=O)N[C@@H](CCC(=O)O)C(=O)N[C@@H](CCC(=O)O)C(=O)N[C@@H](C)C(=O)N[C@@H](CCC(=O)O)C(=O)O` [XEKLQEEMLQREEAE] (H-[Cit]EKLQEEMLQREEAE-OH), in that order: greater than 40000 nM and 26100 nM.
In the case of NDALRQAKQESTEYR [Vimentin 306 WT], the IC50 in experiment [1] (setting [13]) is greater than 40000 nM; in experiment [2] (setting [14]) it was 15400 nM.
For FSLADAINTEFKNTR [Vimentin 86 WT], the IC50 in experiment [1] (setting [11]) was 12000 nM; in experiment [2] (setting [12]), 68 nM.
On to `CC[C@H](C)[C@H](N)C(=O)N[C@@H](CCCNC(N)=O)C(=O)N[C@@H](C)C(=O)N[C@@H](CCC(=O)O)C(=O)NCC(=O)N[C@@H](CC(N)=O)C(=O)N[C@@H](CO)C(=O)N[C@@H](CCCNC(=N)N)C(=O)N[C@@H](Cc1ccccc1)C(=O)N[C@H](C(=O)N[C@@H](Cc1ccc(O)cc1)C(=O)N[C@H](C(=O)N[C@@H](C)C(=O)N[C@@H](CC(C)C)C(=O)N[C@@H](CCCCN)C(=O)O)[C@@H](C)O)[C@@H](C)O` [IXAEGNSRFTYTALK] (H-I[Cit]AEGNSRFTYTALK-OH), for which the IC50 in experiment [1] (setting [7]) amounted to 2310 nM; in experiment [1] (setting [8]), 794 nM; in experiment [2] (setting [9]), 0.62 nM; in experiment [2] (setting [10]) it was 1.3 nM.
With STEYRRQVQSLTCEV [Vimentin 316 WT], the IC50 was determined as 600 nM in experiment [1] (setting [13]) and 138 nM in experiment [2] (setting [14]).
Regarding `CC(C)C[C@H](NC(=O)[C@H](CO)NC(=O)[C@H](CCC(N)=O)NC(=O)[C@@H](NC(=O)[C@H](CCC(N)=O)NC(=O)[C@H](CCCNC(N)=O)NC(=O)[C@H](CCCNC(=N)N)NC(=O)[C@H](Cc1ccc(O)cc1)NC(=O)[C@H](CCC(=O)O)NC(=O)[C@@H](NC(=O)[C@@H](N)CO)[C@@H](C)O)C(C)C)C(=O)N[C@H](C(=O)N[C@@H](CS)C(=O)N[C@@H](CCC(=O)O)C(=O)N[C@H](C(=O)O)C(C)C)[C@@H](C)O` [STEYRXQVQSLTCEV] (H-STEYR[Cit]QVQSLTCEV-OH), the IC50 in experiment [1] (setting [5]) is 860 nM; in experiment [2] (setting [6]), 158 nM.
In the case of `CC[C@H](C)[C@H](NC(=O)[C@H](CC(=O)O)NC(=O)[C@H](CC(C)C)NC(=O)[C@H](C)NC(=O)[C@H](CCSC)NC(=O)[C@H](CCCCN)NC(=O)[C@@H](NC(=O)[C@H](CC(N)=O)NC(=O)[C@H](CC(C)C)NC(=O)[C@H](CC(C)C)NC(=O)[C@H](CC(=O)O)NC(=O)[C@H](CCC(N)=O)NC(=O)[C@H](Cc1ccc(O)cc1)NC(=O)[C@H](CCC(=O)O)NC(=O)[C@@H](N)CCCNC(N)=O)C(C)C)C(=O)O` [XEYQDLLNVKMALDI], the IC50 is 1070 nM in experiment [1] (setting [5]) and 57 nM in experiment [2] (setting [6]).
Take `CC(C)C[C@H](NC(=O)[C@H](CCC(N)=O)NC(=O)[C@H](CC(=O)O)NC(=O)[C@@H](N)C(C)C)C(=O)N[C@H](C(=O)N[C@@H](CC(N)=O)C(=O)N[C@@H](CC(=O)O)C(=O)N[C@@H](CCCCN)C(=O)N[C@@H](C)C(=O)N[C@@H](CCCNC(N)=O)C(=O)N[C@H](C(=O)N[C@@H](CCC(=O)O)C(=O)N[C@H](C(=O)N[C@@H](CCC(=O)O)C(=O)N[C@@H](CCCNC(=N)N)C(=O)O)C(C)C)C(C)C)[C@@H](C)O` [VDQLTNDKAXVEVER] (H-VDQLTNDKA[Cit]VEVER-OH): the IC50 in experiment [1] (setting [3]) is greater than 40000 nM; in experiment [2] (setting [4]), 20400 nM.
For the compound `CC(C)C[C@H](NC(=O)[C@H](C)NC(=O)[C@H](C)NC(=O)[C@@H](NC(=O)[C@H](CC(C)C)NC(=O)[C@H](CC(=O)O)NC(=O)[C@@H]1CCCN1C(=O)[C@H](CCCCN)NC(=O)[C@@H](N)CO)[C@@H](C)O)C(=O)N[C@@H](CCCNC(N)=O)C(=O)N[C@@H](CC(=O)O)C(=O)N[C@H](C(=O)N[C@@H](CCCNC(=N)N)C(=O)N[C@@H](CCC(N)=O)C(=O)N[C@@H](CCC(N)=O)C(=O)O)C(C)C` [SKPDLTAALXDVRQQ] (H-SKPDLTAAL[Cit]DVRQQ-OH), the figures for the IC50 in experiment [1] (setting [3]) and in experiment [2] (setting [4]) were 30300 nM and 1370 nM, respectively.
As to PGFPGPRGPPGPQGA [Collagen 431 WT], the IC50 in experiment [1] (setting [13]) and in experiment [2] (setting [14]) was greater than 40000 nM throughout.
